Results taken from patent US20200319201A1, “METHODS FOR MONITORING TUBERCULOSIS MEDICATION” (priority 2017, published 2020).

Experiment: Liquid chromatography mass spectrometry analysis of fingerprint sweat samples for Tuberculosis medication and metabolite
Assay type: in vivo, human
Settings: for percentage of fingerprint samples in which detected: 75 samples; for number of fingerprint samples in which detected (of 25 fingerprints): 5 subjects who had finished a course of Isoniazid at least 72 hours previously
Experimental: All subjects from whom fingerprint samples were taken were human. Fingerprints were taken from the five fingers (i.e. the four fingers and the thumb) of each subject's right hand: • without the hand having been washed; or • after the hand has been washed with soap and water, and covered with a clean surgical glove for 10 minutes, without contacting any other surface.
The chromatography paper with fingerprint samples thereon were placed in a 2 ml Eppendorf microcentrifuge tube, following which an extraction solution (1.5 ml of 10% dichloromethane in methanol) was added. The tube was then centrifuged for 2 min (at 9.5 centrifugal force). The solvent extract was evaporated to dryness under a stream of nitrogen at room temperature (20° C.) and reconstituted in 100 μl mobile phase solution (95:5 water/acetonitrile+0.1% formic acid+iosotopically labelled internal standards) before being vortexed and transferred to a 300 μl glass micro-insert vial, with 5 μl being injected onto an LC-MS/MS system.
Chromatographic separation was performed on a Thermo Scientific™ Ultimate3000 UHPLC system equipped with a binary solvent manager, column manager and autosampler. The injection volume was 5 μL. Separation was performed on a Kinetex XB-C18 column (100×2.1 mm, 5 μm) operated at 30° C. at a flow rate of 0.25 ml/min. Mobile phase comprises 95% H2O (0.1% formic acid) and 5% acetonitrile (ACN) (0.1% formic acid).
The prepared samples were introduced to a Thermo Orbitrap Q-Exactive Plus mass spectrometer using the standard ESI interface with a capillary temperature of 320° C. and spray voltage 3 kV. Positive mass spectra were acquired in full scan mode within a range of m/z 50-500 at a mass resolution of 70 000 at m/z 200.

[1] = after washing hands using soap and water, same subjects as Example 1, isoniazid 300 mg (one 400 mg)
[2] = after washing hands using soap and water, same subjects as Example 1
[3] = hands not washed, approximately 3 hours after 300 mg isoniazid (one subject 400 mg), 15 subjects
[4] = hands not washed, approximately 3 hours after 300 mg isoniazid (one subject 400 mg)
[5] = hands washed using soap and water
[6] = sample obtained 2 hours after the subject had taken Isoniazid
[7] = sample obtained 72 hours after the subject had taken Isoniazid

**Q.** Which results are given for `CC(=O)NNC(=O)c1ccncc1` [Acetylisoniazid]?
**A.** number of fingerprint samples in which detected (out of the 75 fingerprint samples) [1]: 72; percentage of fingerprint samples in which detected [2]: 96%; number of fingerprint samples in which detected (of 25 fingerprints) (hands not washed): 0; number of fingerprint samples in which detected (out of the 75 fingerprint samples) [3]: 73; percentage of fingerprint samples in which detected [4]: 97%; number of fingerprint samples in which detected (of 25 fingerprints) [5]: 0; presence in fingerprint sweat sample [6]: shows the presence; presence in fingerprint sweat sample [7]: does not show the presence

**Q.** With `NNC(=O)c1ccncc1` [Isoniazid] as the compound, how does the “number of fingerprint samples in which detected (out of the 75 fingerprint samples)” value [1] read?
**A.** 40

**Q.** And the “percentage of fingerprint samples in which detected” value [2]?
**A.** 53%

**Q.** And the “number of fingerprint samples in which detected (of 25 fingerprints)” value (hands not washed)?
**A.** 0

**Q.** What about the “number of fingerprint samples in which detected (out of the 75 fingerprint samples)” value [3] of the same compound?
**A.** 51

**Q.** And the “percentage of fingerprint samples in which detected” value [4]?
**A.** 68%

**Q.** And the “number of fingerprint samples in which detected (of 25 fingerprints)” value [5]?
**A.** 0

**Q.** What about the “presence in fingerprint sweat sample” value [6] of the same compound?
**A.** shows the presence

**Q.** And the “presence in fingerprint sweat sample” value [7]?
**A.** does not show the presence

**Q.** For `NC(=O)c1cnccn1` [pyrazinamide, Pyrazinamide], which “presence in fingerprint sample” value (approximately 3 hours after 1,000 mg pyrazinamide, hands washed) is on record?
**A.** presence of pyrazinamide is evidenced
